Patent publication US5652220A, “Encapsulation of TRH or its analog” (Takeda Chemical Industries, Ltd., priority 1986, dated 1997)

Columns and labels:
[1] = drug trapping percentage into microcapsules (amount actually incorporated vs amount charged); assay type: physicochemical; settings: comparison microcapsules, 53 mg TRH, w/o emulsion viscosity about 2,000 cp
Experimental: (§1) The microcapsules obtained by charging TRH in an amount of 1-20% based on PLGA and following the above procedure were tested for drug trapping percentage (percentage of amount actually incorporated into microcapsules to amount charged) and further assayed, in an in vitro dissolution test, for residual TRH in microcapsules after one day of standing in phoshpate buffer (pH 7.0) at 37° C.
(§2) For these microcapsules, the percentage of trapping of CG-3509 was determined and the residual CG-3509 in the microcapsules after one-day standing in phosphate buffer (pH 7.0) at 37° C. was assayed in an in vitro dissolution test.

[2] = in vitro dissolution test: residual drug in microcapsules standing in phosphate buffer (pH 7.0) at 37° C.; assay type: physicochemical
Experimental: as §1
(b) 1/30M phosphate buffer (pH 7.0), 37° C. (mean for n = 2).
The microcapsules obtained by the procedure of Example 1 were examined for in vitro drug release property and for in vivo drug release property after subcutaneous administration to rats (the residual drug amount in microcapsules at the site of administration was determined).
as §2

NC(=O)[C@@H]1CCCN1C(=O)[C@H](Cc1cnc[nH]1)NC(=O)[C@@H]1CCC(=O)N1 [TRH, pyroGlu-His-ProNH2]
trapping percentage ([1]; 4 g PLGA, TRH to PLGA 1.33%): 77%
trapping percentage ([1]; 6 g PLGA, TRH to PLGA 0.88%): 98%
first day release ([2]; Example 2, TRH 2% relative to PLGA, free form or strong acid added): 15.8%
initial release ([2]; Example 2, acetic acid added, TRH 2% relative to PLGA): 33.2%
release of the first day ([2]; TRH concentration relative to PLGA 1%): 65.7%
initial release ([2]; acetic acid added, TRH 5% relative to PLGA): 22.6%
initial release ([2]; comparison microcapsules, TRH to PLGA 0.88%): 67%
initial release ([2]; comparison microcapsules, TRH to PLGA 1.33%): 71%
